For series [1] the following is noted: human, in vivo, po, 1800 mg.
Protocol: The capsule having the self-emulsifying composition of the present invention containing 80% by weight of EPA-E as its content was orally administered to human (12 cases, healthy adult males of 20 to 40 years old with a body weight of 55.0 to 77.0 kg and a BMI of 18.5 or more but less than 25.0) under fasting conditions to evaluate the change of blood EPA concentration. The self-emulsifying composition in an amount corresponding to 1800 mg of EPA-E was orally administered in single dose to each human who had been fasted since 10 hours or more before the administration by using 200 mL of water in the morning under fasting. The blood was collected 0.5, 1, 1.5, 2, 3, 4, 5, 6, 7, 8, 9, 10, 12, 15, 18, 24, 48 and 72 hours after the administration. Immediately after the collection, the blood was cooled on ice, and centrifuged at 2000×g at 4° C. for 10 minutes to separately collect the plasma. After having stored the resulting plasma at a temperature not higher than −20° C. in frozen state, concentration of the EPA in the plasma was measured by LC/MS/MS (method in which a sample is isolated by liquid chromatography, then subjected to mass spectrometry to conduct separation and measurement thereon). […]
In the calculation of each parameter, correction was made by subtracting the blood EPA concentration before the administration from the measured blood concentration.
For series [2] the following is noted: human, in vivo, po, 3600 mg.
Protocol: The capsule having the self-emulsifying composition of the present invention containing 80% by weight of EPA-E as its content was orally administered to human (12 cases, healthy adult males of 20 to 40 years old with a body weight of 55.0 to 77.0 kg and a BMI of 18.5 or more but less than 25.0) under fasting conditions to evaluate the change of blood EPA concentration. The self-emulsifying composition in an amount corresponding to 1800 mg of EPA-E was orally administered in single dose to each human who had been fasted since 10 hours or more before the administration by using 200 mL of water in the morning under fasting. The blood was collected 0.5, 1, 1.5, 2, 3, 4, 5, 6, 7, 8, 9, 10, 12, 15, 18, 24, 48 and 72 hours after the administration. […] After having stored the resulting plasma at a temperature not higher than −20° C. in frozen state, concentration of the EPA in the plasma was measured by LC/MS/MS (method in which a sample is isolated by liquid chromatography, then subjected to mass spectrometry to conduct separation and measurement thereon). […]
This test was conducted on 6 humans. […] In the calculation of each parameter, correction was made by subtracting the blood EPA concentration before the administration from the measured blood concentration.

Here are results for one compound from patent publication US11911480B2, “Self-emulsifying composition of ω-3 fatty acid” (priority 2015, dated 2024).

Read-outs that look alike come from different tables or passages of the source.

For `CC/C=C\C/C=C\C/C=C\C/C=C\C/C=C\CCCC(=O)OCC` [EPA-E stock solution, Ethyl eicosapentaenoate], the values for the highest concentration (Cmax) in series [1] and in series [2] were 4600 ng/mL and 3600 ng/mL, respectively.
